Where two headings read alike, the source gives them in different places. Starred links: 1 amine or outer side, 2 acyl side, 3 side chain; linkers in the order of their positions; H or OH if unused. Non-standard residues stand in square brackets, D forms with d. Residues, ends and D or L forms follow the SMILES beside them. Groups on a side chain read outwards from the residue. *: point of attachment. C18 diacid = O=C(O)CCCCCCCCCCCCCCCCC(=O)*; γGlu = O=C(O)[C@H](CCC(=O)[*:2])N[*:1]; αMeY = C[C@](N)(Cc1ccc(O)cc1)C(=O)O; αMeF = C[C@](N)(Cc1ccccc1)C(=O)O; αMeL = CC(C)C[C@](C)(N)C(=O)O; αMeS = C[C@](N)(CO)C(=O)O; Orn = NCCC[C@H](N)C(=O)O; AEEA = NCCOCCOCC(=O)O; Aib = CC(C)(N)C(=O)O
Assays:
Assay type in all cases: cell-based
hGIPR [1] = target: T1, hGIPR (Homo sapiens, UniProt P48546); experiment: Functional cAMP activity in the presence of 1% HSA; conditions: read-out: cAMP Rel EC50, hGIPR
T1 sequence (P48546 22-466): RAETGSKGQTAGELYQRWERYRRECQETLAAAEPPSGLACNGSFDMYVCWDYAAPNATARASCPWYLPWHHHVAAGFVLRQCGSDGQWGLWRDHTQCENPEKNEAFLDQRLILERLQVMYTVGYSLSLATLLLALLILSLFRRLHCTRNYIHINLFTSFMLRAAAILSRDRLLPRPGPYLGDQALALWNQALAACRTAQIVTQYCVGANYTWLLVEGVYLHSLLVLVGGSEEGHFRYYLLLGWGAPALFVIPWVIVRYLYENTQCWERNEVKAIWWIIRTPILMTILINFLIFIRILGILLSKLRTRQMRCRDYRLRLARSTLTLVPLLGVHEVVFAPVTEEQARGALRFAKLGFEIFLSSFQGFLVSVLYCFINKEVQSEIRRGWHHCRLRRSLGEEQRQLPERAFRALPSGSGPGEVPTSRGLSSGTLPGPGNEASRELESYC

hGLP-1R [2] = target: T2, hGLP-1R (Homo sapiens, UniProt P43220); experiment: Functional cAMP activity in the presence of 1% HSA; conditions: read-out: cAMP Rel EC50, hGLP-1R
human GcgR = human GcgR (Homo sapiens, UniProt P47871); experiment: Functional cAMP activity in the presence of 1% HSA; conditions: read-out: cAMP Rel EC50, hGcgR
hGIPR [3] = target: T1, hGIPR; experiment: Functional cAMP activation in the presence of 0.1% casein (no HSA); conditions: read-out: Relative cAMP EC50, hGIPR;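 on Relative cAMP EC50, hGIPR: intracellular cAMP rise after 30 min at 37 °C read by HTRF against a standard curve, scaled between buffer alone (0%) and top control ligand concentration (100%), four-parameter fit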;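 on Relative cAMP EC50, hGLP-1R: intracellular cAMP rise after 30 min at 37 °C read by HTRF, normalized between buffer only (0%) and maximal control ligand (100%), four-parameter variable-slope fit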;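 on Relative cAMP EC50, hGcgR: intracellular cAMP rise after 30 min at 37 °C, read by HTRF against a cAMP standard curve, scaled from buffer only (0%) to maximal control ligand response (100%)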
hGLP-1R [4] = target: T2, hGLP-1R; experiment: as above; conditions: read-out: Relative cAMP EC50, hGLP-1R
hGcgR = hGcgR (Homo sapiens, UniProt P47871); experiment: as above; conditions: read-out: Relative cAMP EC50, hGcgR;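 further: intracellular cAMP rise after 30 min at 37 °C, read by HTRF against a cAMP standard curve, scaled from buffer only (0%) to maximal control ligand response (100%)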
[5] = in the presence of 0.1% casein (no HSA), geometric mean

Chain of human GcgR (P47871 26-477): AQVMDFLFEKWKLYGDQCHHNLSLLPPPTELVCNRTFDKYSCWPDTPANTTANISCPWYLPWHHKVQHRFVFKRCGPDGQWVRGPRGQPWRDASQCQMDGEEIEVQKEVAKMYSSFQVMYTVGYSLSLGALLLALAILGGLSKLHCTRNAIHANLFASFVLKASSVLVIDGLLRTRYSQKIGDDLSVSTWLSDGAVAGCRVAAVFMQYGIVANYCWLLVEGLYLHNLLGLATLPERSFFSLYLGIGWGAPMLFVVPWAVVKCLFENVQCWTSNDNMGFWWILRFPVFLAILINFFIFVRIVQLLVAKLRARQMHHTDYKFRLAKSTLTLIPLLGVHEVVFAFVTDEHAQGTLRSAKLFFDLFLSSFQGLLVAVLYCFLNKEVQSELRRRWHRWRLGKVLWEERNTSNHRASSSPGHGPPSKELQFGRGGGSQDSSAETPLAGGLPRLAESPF
Chain of hGcgR (P47871 26-477): as above
T2 sequence (P43220 24-463): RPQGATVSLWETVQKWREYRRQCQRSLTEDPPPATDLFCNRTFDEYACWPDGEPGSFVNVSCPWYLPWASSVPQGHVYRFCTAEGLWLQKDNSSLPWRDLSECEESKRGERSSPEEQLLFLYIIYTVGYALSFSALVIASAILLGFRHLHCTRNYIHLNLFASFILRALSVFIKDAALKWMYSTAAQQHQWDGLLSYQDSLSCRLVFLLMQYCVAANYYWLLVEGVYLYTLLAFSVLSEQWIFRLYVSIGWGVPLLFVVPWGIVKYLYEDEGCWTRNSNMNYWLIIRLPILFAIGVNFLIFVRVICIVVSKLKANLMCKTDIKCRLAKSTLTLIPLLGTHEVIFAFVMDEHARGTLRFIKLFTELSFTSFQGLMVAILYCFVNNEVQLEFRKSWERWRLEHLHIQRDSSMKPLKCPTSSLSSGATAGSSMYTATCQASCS

CC[C@H](C)[C@H](NC(=O)[C@H](Cc1ccccc1)NC(=O)[C@H](CCCN)NC(=O)C(C)(C)NC(=O)[C@H](CCC(N)=O)NC(=O)[C@H](C)NC(=O)[C@H](CCCCNC(=O)COCCOCCNC(=O)CC[C@H](NC(=O)CCCCCCCCCCCCCCCCC(=O)O)C(=O)O)NC(=O)[C@H](CCCN)NC(=O)[C@H](CC(=O)O)NC(=O)[C@H](CC(C)C)NC(=O)[C@](C)(CC(C)C)NC(=O)[C@H](CO)NC(=O)[C@](C)(CO)NC(=O)[C@H](Cc1ccc(O)cc1)NC(=O)[C@H](CC(=O)O)NC(=O)[C@H](CO)NC(=O)[C@@H](NC(=O)[C@](C)(Cc1ccccc1)NC(=O)[C@@H](NC(=O)CNC(=O)[C@H](CCC(N)=O)NC(=O)C(C)(C)NC(=O)[C@@H](N)Cc1ccc(O)cc1)[C@@H](C)O)[C@@H](C)O)C(=O)N[C@H](CCC(=O)O)C(=O)N[C@@](C)(Cc1ccc(O)cc1)C(=O)N[C@@H](CC(C)C)C(=O)N[C@@H](CC(C)C)C(=O)N[C@@H](CCC(=O)O)C(=O)NCC(=O)NCC(=O)N1CCC[C@H]1C(=O)N[C@@H](CO)C(=O)N[C@@H](CO)C(=O)NCC(=O)N[C@@H](CCC(=O)O)C(=O)N1CCC[C@H]1C(=O)N1CCC[C@H]1C(=O)N1CCC[C@H]1C(=O)N[C@@H](CCC(=O)O)C(N)=O [Example 389] (H-Y[Aib]QGT[αMeF]TSDY[αMeS]S[αMeL]LD[Orn]K([AEEA-γGlu-C18 diacid])AQ[Aib][Orn]FI[dE][αMeY]LLEGGPSSGEPPPE-NH2)
EC50 (hGIPR [1]): 18.3 nM | EC50 (hGLP-1R [2]): 18.9 nM | EC50 (human GcgR): 889 nM | EC50 (hGIPR [3]; [5]): 0.0354 nM | EC50 (hGLP-1R [4]; [5]): 0.134 nM | EC50 (hGcgR; [5]): 4.03 nM

CC[C@H](C)[C@H](NC(=O)[C@H](Cc1ccccc1)NC(=O)[C@H](CCCN)NC(=O)C(C)(C)NC(=O)[C@H](CCC(N)=O)NC(=O)[C@H](C)NC(=O)[C@H](CCCCNC(=O)COCCOCCNC(=O)CC[C@H](NC(=O)CCCCCCCCCCCCCCCCC(=O)O)C(=O)O)NC(=O)[C@H](CCCN)NC(=O)[C@H](CC(=O)O)NC(=O)[C@H](CC(C)C)NC(=O)[C@H](CC(C)C)NC(=O)[C@H](CO)NC(=O)[C@](C)(CO)NC(=O)[C@H](Cc1ccc(O)cc1)NC(=O)[C@H](CC(=O)O)NC(=O)[C@H](CO)NC(=O)[C@@H](NC(=O)[C@](C)(Cc1ccccc1)NC(=O)[C@@H](NC(=O)CNC(=O)[C@H](CCC(N)=O)NC(=O)C(C)(C)NC(=O)[C@@H](N)Cc1ccc(O)cc1)[C@@H](C)O)[C@@H](C)O)C(=O)N[C@H](CCC(=O)O)C(=O)N[C@@](C)(Cc1ccc(O)cc1)C(=O)N[C@@H](CC(C)C)C(=O)N[C@@H](CC(C)C)C(=O)N[C@@H](CCC(=O)O)C(=O)NCC(=O)NCC(=O)N1CCC[C@H]1C(=O)N[C@@H](CO)C(=O)N[C@@H](CO)C(=O)NCC(=O)N[C@@H](CCC(=O)O)C(=O)N1CCC[C@H]1C(=O)N1CCC[C@H]1C(=O)N1CCC[C@H]1C(=O)N[C@@H](CCC(=O)O)C(N)=O [Example 390] (H-Y[Aib]QGT[αMeF]TSDY[αMeS]SLLD[Orn]K([AEEA-γGlu-C18 diacid])AQ[Aib][Orn]FI[dE][αMeY]LLEGGPSSGEPPPE-NH2)
EC50 (hGIPR [1]): 37.8 nM | EC50 (hGLP-1R [2]): 19.6 nM | EC50 (human GcgR): 549 nM | EC50 (hGIPR [3]; [5]): 0.122 nM | EC50 (hGLP-1R [4]; [5]): 0.134 nM | EC50 (hGcgR; [5]): 3.08 nM

CC[C@H](C)[C@H](NC(=O)[C@H](Cc1ccccc1)NC(=O)[C@H](CCCN)NC(=O)C(C)(C)NC(=O)[C@H](CCC(N)=O)NC(=O)[C@H](C)NC(=O)[C@H](CCCCNC(=O)COCCOCCNC(=O)CC[C@H](NC(=O)CCCCCCCCCCCCCCCCC(=O)O)C(=O)O)NC(=O)[C@H](CCCN)NC(=O)[C@H](CC(=O)O)NC(=O)[C@H](CC(C)C)NC(=O)[C@](C)(CC(C)C)NC(=O)[C@@H](NC(=O)[C@](C)(CO)NC(=O)[C@H](Cc1ccc(O)cc1)NC(=O)[C@H](CC(=O)O)NC(=O)[C@H](CO)NC(=O)[C@@H](NC(=O)[C@](C)(Cc1ccccc1)NC(=O)[C@@H](NC(=O)CNC(=O)[C@H](CCC(N)=O)NC(=O)C(C)(C)NC(=O)[C@@H](N)Cc1ccc(O)cc1)[C@@H](C)O)[C@@H](C)O)[C@@H](C)CC)C(=O)N[C@H](CCC(=O)O)C(=O)N[C@@H](Cc1ccc(O)cc1)C(=O)N[C@@H](CC(C)C)C(=O)N[C@@H](CC(C)C)C(=O)N[C@@H](CCC(=O)O)C(=O)NCC(=O)NCC(=O)N1CCC[C@H]1C(=O)N[C@@H](CO)C(=O)N[C@@H](CO)C(=O)NCC(=O)N[C@@H](CCC(=O)O)C(=O)N1CCC[C@H]1C(=O)N1CCC[C@H]1C(=O)N1CCC[C@H]1C(=O)N[C@@H](CCC(=O)O)C(N)=O [Example 391] (H-Y[Aib]QGT[αMeF]TSDY[αMeS]I[αMeL]LD[Orn]K([AEEA-γGlu-C18 diacid])AQ[Aib][Orn]FI[dE]YLLEGGPSSGEPPPE-NH2)
EC50 (hGIPR [1]): 11.5 nM | EC50 (hGLP-1R [2]): 34.4 nM | EC50 (human GcgR): 808 nM | EC50 (hGIPR [3]): 0.0298 nM | EC50 (hGLP-1R [4]): 0.199 nM | EC50 (hGcgR): 3.04 nM

CC[C@H](C)[C@H](NC(=O)[C@H](Cc1ccccc1)NC(=O)[C@H](C)NC(=O)C(C)(C)NC(=O)[C@H](CCC(N)=O)NC(=O)[C@H](C)NC(=O)[C@H](CCCCNC(=O)COCCOCCNC(=O)CC[C@H](NC(=O)CCCCCCCCCCCCCCCCC(=O)O)C(=O)O)NC(=O)[C@H](CCCCN)NC(=O)[C@H](CC(=O)O)NC(=O)[C@H](CC(C)C)NC(=O)[C@H](CC(C)C)NC(=O)[C@@H](NC(=O)[C@H](CO)NC(=O)[C@H](Cc1ccc(O)cc1)NC(=O)[C@H](CC(=O)O)NC(=O)[C@H](CO)NC(=O)[C@@H](NC(=O)[C@](C)(Cc1ccccc1)NC(=O)[C@@H](NC(=O)CNC(=O)[C@H](CCC(N)=O)NC(=O)C(C)(C)NC(=O)[C@@H](N)Cc1ccc(O)cc1)[C@@H](C)O)[C@@H](C)O)[C@@H](C)CC)C(=O)N[C@@H](CCC(=O)O)C(=O)N[C@@H](Cc1ccc(O)cc1)C(=O)N[C@@H](CC(C)C)C(=O)N[C@@H](CCC(=O)O)C(=O)N[C@@H](CCC(=O)O)C(=O)NCC(=O)NCC(=O)N1CCC[C@H]1C(=O)N[C@@H](CO)C(=O)N[C@@H](CO)C(=O)NCC(=O)N[C@@H](C)C(=O)N1CCC[C@H]1C(=O)N1CCC[C@H]1C(=O)N1CCC[C@H]1C(=O)N[C@@H](CO)C(N)=O [Example 392] (H-Y[Aib]QGT[αMeF]TSDYSILLDKK([AEEA-γGlu-C18 diacid])AQ[Aib]AFIEYLEEGGPSSGAPPPS-NH2)
EC50 (hGIPR [1]): 28.7 nM | EC50 (hGLP-1R [2]): 41.5 nM | EC50 (human GcgR): 611 nM | EC50 (hGIPR [3]): 0.0571 nM | EC50 (hGLP-1R [4]): 0.253 nM | EC50 (hGcgR): 3.02 nM

CC[C@H](C)[C@H](NC(=O)[C@H](Cc1ccccc1)NC(=O)[C@H](C)NC(=O)C(C)(C)NC(=O)[C@H](CCC(N)=O)NC(=O)[C@H](C)NC(=O)[C@H](CCCCNC(=O)COCCOCCNC(=O)CC[C@H](NC(=O)CCCCCCCCCCCCCCCCC(=O)O)C(=O)O)NC(=O)[C@H](CCCCN)NC(=O)[C@H](CC(=O)O)NC(=O)[C@H](CC(C)C)NC(=O)[C@H](CC(C)C)NC(=O)[C@@H](NC(=O)[C@](C)(CO)NC(=O)[C@H](Cc1ccc(O)cc1)NC(=O)[C@H](CC(=O)O)NC(=O)[C@H](CO)NC(=O)[C@@H](NC(=O)[C@](C)(Cc1ccccc1)NC(=O)[C@@H](NC(=O)CNC(=O)[C@H](CCC(N)=O)NC(=O)C(C)(C)NC(=O)[C@@H](N)Cc1ccc(O)cc1)[C@@H](C)O)[C@@H](C)O)[C@@H](C)CC)C(=O)N[C@@H](CCC(=O)O)C(=O)N[C@@H](Cc1ccc(O)cc1)C(=O)N[C@@H](CC(C)C)C(=O)N[C@@H](CCC(=O)O)C(=O)N[C@@H](CCC(=O)O)C(=O)NCC(=O)NCC(=O)N1CCC[C@H]1C(=O)N[C@@H](CO)C(=O)N[C@@H](CO)C(=O)NCC(=O)N[C@@H](C)C(=O)N1CCC[C@H]1C(=O)N1CCC[C@H]1C(=O)N1CCC[C@H]1C(=O)N[C@@H](CO)C(N)=O [Example 393] (H-Y[Aib]QGT[αMeF]TSDY[αMeS]ILLDKK([AEEA-γGlu-C18 diacid])AQ[Aib]AFIEYLEEGGPSSGAPPPS-NH2)
EC50 (hGIPR [1]): 12.4 nM | EC50 (hGLP-1R [2]): 29.6 nM | EC50 (human GcgR): 151 nM | EC50 (hGIPR [3]): 0.0458 nM | EC50 (hGLP-1R [4]): 0.211 nM | EC50 (hGcgR): 0.947 nM

From patent US20240270821A1, “GIP/GLP1/GCG TRI-RECEPTOR AGONISTS AND USES THEREOF” (priority 2023, published 2024)
